Reference: patent US11814370B2, “Deuterated N-(5-(2,3-dihydrobenzo[b][1,4]dioxine-6-carboxamido)-2-fluorophenyl)-2-((4-ethylpiperazin-1-yl)methyl)quinoline-6-carboxamide” (priority 2016, dated 2023)

How the values were obtained:
[1] = test system: HSP72 induction (product of HSF1 transcriptional activity) in SK-OV-3 cells; experiment: Cell-based ELISA (Cellisa) for HSP72 expression after 17-AAG; set-up: species or system human; conditions: SK-OV-3 ovarian cancer cell line; summary of Table 1
Description: Prior to use, the cells were analyzed by short tandem repeat (STR) profiling. Polymorphic STR loci were amplified using a polymerase chain reaction (PCR) primer set. The PCR product (each locus being labelled with a different fluorophore) was analyzed simultaneously with size standards using automated fluorescent detection. The number of repeats at 10 different loci (as recommended by the American Type Culture Collection, ATCC) was used to define the STR profile and this was cross-referenced with online databases to confirm authenticity. […] The cells were free of mycoplasma contamination as determined by a sensitive nested PCR protocol (Venor GeM kit, Minerva Biolabs, Germany). Cells were grown in DMEM/10% FCS, 2 mM glutamine and nonessential amino acids in 5% CO2.
Cell-Based ELISA (Cellisa) for HSP72 Expression
To follow HSP72 protein expression, a product of HSF1 transcriptional activity, the Cellisa was developed. […] The medium was removed and cells were fixed with fixing solution (4% paraformaldehyde, 0.3% TritonX-100 in PBS buffer) for 30 min at 4° C. The plates were then washed with 0.1% Tween-20/deionized water, before blocking with 5% milk for 30 mins at 37° C. […] Following 4× washes, the plates were incubated with europium-labelled anti-mouse antibody (0.6 μg/mL) in Delfia assay buffer (Perkin Elmer) for 1 h at 37° C. […]

[2] = test system: SK-OV-3 ovarian cancer cell line; experiment: cells; format: cell-based; conditions: Homo sapiens, SK-OV-3, 96 h, read-out: SK-OV-3 pGI50 ± SEM (n) (converted)
Description: Cells were grown in DMEM/10% FCS, 2 mM glutamine and nonessential amino acids in 5% CO2.
In Vitro Cell Viability Assay
The cell titer blue viability (CTB) (Promega) assay provides a homogenous, fluorometric method for estimating the number of viable cells. It uses the dark blue indicator dye resazurin to measure the metabolic capacity of cells which is an indicator of cell viability. Viable cells are able to reduce resazurin into resorufin (pink), which is highly fluorescent. […] Compounds (at a range of concentrations) were added using the ECHO 550 liquid handler (Labcyte, USA) and then left at 37° C. for 96 h. Titre blue reagent was added to each well and left at 37° C. for 3-4 h. Fluorescence was measured using the Envision machine (Perkin Elmer, UK). The 50% growth inhibitory concentration (GI50) was determined by fitting the data to a dose-response curve without limits using non-linear regression. Each concentration was tested twice.

Row | SMILES | cellular activity (in words) [1] | GI50 [2]
1 | [2H]C([2H])([2H])C([2H])([2H])N1CCN(Cc2ccc3cc(C(=O)Nc4cc(NC(=O)c5ccc6c(c5)OCCO6)ccc4F)ccc3n2)CC1 [Compound A, N-(5-(2,3-Dihydrobenzo[b][1,4]dioxine-6-carboxamido)-2-fluorophenyl)-2-((4-ethyl-d5-piperazin-1-yl)methyl)quinoline-6-carboxamide] | potent cellular activity | 
2 | [2H]C1([2H])N(CC)C([2H])([2H])C([2H])([2H])N(Cc2ccc3cc(C(=O)Nc4cc(NC(=O)c5ccc6c(c5)OCCO6)ccc4F)ccc3n2)C1([2H])[2H] [Compound B, N-(5-(2,3-Dihydrobenzo[b][1,4]dioxine-6-carboxamido)-2-fluorophenyl)-2-((4-ethyl-piperazin-d8-1-yl)methyl)quinoline-6-carboxamide] |  | 18.2 nM
3 | [2H]C1([2H])Oc2ccc(C(=O)Nc3ccc(F)c(NC(=O)c4ccc5nc(CN6CCN(CC)CC6)ccc5c4)c3)cc2OC1([2H])[2H] [Compound C, N-(5-(2,3-Dihydrobenzo-d4-[b][1,4]dioxine-6-carboxamido)-2-fluorophenyl)-2-((4-ethylpiperazin-1-yl)methyl)quinoline-6-carboxamide] |  | 11.5 nM
